Reference: PubChem BioAssay (NCI)
“And” between values parts separate entries of the source, which are not always exact repeats. Equal values may be shown once.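 Dose response: 5 concentrations. Exposure: 48 h. Format: 96-well plates. Endpoint: linear interpolation; highest concentration if not reached. GI50 marks 50% less growth. At the TGI there is no net growth.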

How the values were obtained:
Experiment in all cases: NCI-60 cell line screen, 48 h
ACHN renal = test system: ACHN renal
CAKI-1 renal = test system: CAKI-1 renal
HCT-116 colon = test system: HCT-116 colon
HOP-92 NSCLC = test system: HOP-92 NSCLC
HS 578T breast = test system: HS 578T breast
NCI-H460 lung = test system: NCI-H460 lung
OVCAR-5 ovarian = test system: OVCAR-5 ovarian
RPMI-8226 leukemia = test system: RPMI-8226 leukemia
SK-MEL-2 melanoma = test system: SK-MEL-2 melanoma
SNB-75 CNS = test system: SNB-75 CNS

| Structure (SMILES) | GI50 (ACHN renal) [nM] | TGI (ACHN renal) [µM] | GI50 (CAKI-1 renal) [nM] | TGI (CAKI-1 renal) [µM] | GI50 (HCT-116 colon) | TGI (HCT-116 colon) [µM] | GI50 (HOP-92 NSCLC) [nM] | TGI (HOP-92 NSCLC) [µM] | GI50 (HS 578T breast) [µM] | TGI (HS 578T breast) [µM] | GI50 (NCI-H460 lung) [nM] | TGI (NCI-H460 lung) [µM] | GI50 (OVCAR-5 ovarian) [µM] | TGI (OVCAR-5 ovarian) [µM] | GI50 (RPMI-8226 leukemia) | GI50 (SK-MEL-2 melanoma) | TGI (SK-MEL-2 melanoma) [µM] | GI50 (SNB-75 CNS) | TGI (SNB-75 CNS) | TGI (RPMI-8226 leukemia) [µM] |
| --- | --- | --- | --- | --- | --- | --- | --- | --- | --- | --- | --- | --- | --- | --- | --- | --- | --- | --- | --- | --- |
| Cc1ccc(/C=C(/C#N)n2nnc3cccc(F)c32)cc1 | 579 | 4.46 | 327 | 25.3 | 379 nM | 6.54 | 309 | 4.75 | 0.373 | > 36.8 | 350 | 2.13 | 0.673 | 9.12 | 391 nM | 522 nM | 19 | 0.212 µM | 0.623 µM |  |
| CC(C)(Oc1cccc(N2CCC[C@@H](C(=O)N(Cc3ccc(-c4cn[nH]c4)cc3)C3CC3)C2)c1)C(=O)N1CCNCC1 | 16100 | 29.6 | 8110 | 21.9 | 12600 nM | 27.8 | 9900 | 23.8 | 5.14 | 29.4 | 12300 | 27.2 | 16.6 | 32.2 | 7110 nM | 14300 nM | 28 | 1.56 µM | 18.3 µM | 31.3 |
| Nc1nc(N)c2c(Cl)c(CNc3ccc(Cl)c(Cl)c3)ccc2n1 |  | 14 |  | 16 |  | 12.4 |  | 9.36 |  | 11.9 |  | 11.4 |  | 12.1 |  |  | 16.7 |  | 18.4 µM | 12.5 |
| O=C(NNC1=NS(=O)(=O)c2ccccc2N1c1ccccc1)c1cnccn1 | > 100000 | > 100 | > 100000 | > 100 | > 100000 nM | > 100 | > 100000 | > 100 | > 100 | > 100 | > 100000 | > 100 |  |  | > 100000 nM | > 100000 nM | > 100 | > 100 µM | > 100 µM | > 100 |
| C=CCc1cc(O)ccc1O | 15100 | 28.3 | 23900 | > 100 | 16800 nM | 31.1 | 42400 | > 100 | 23.2 | > 100 | 46800 | > 100 | 26.7 | > 100 | 2600 nM | 85500 nM | > 100 | 5.74 µM | > 100 µM | 34.1 |
| NC(=O)NC(=O)Nc1ccc(Br)cc1 |  | > 30.3 |  | > 35.1 |  | > 49.6 |  | > 100 |  | > 100 |  | > 36.4 |  | > 100 |  |  | > 20.7 |  |  | > 35 |
| COc1ccc(/C=C/C(=O)OC2CC34CCNC35CC(OC5(OC)C2OC)c2ccc(OC)c(O)c24)cc1O (centres undefined) |  | > 100 |  | > 100 | 47200 nM and > 100000 nM | > 100 |  | > 100 |  | > 100 |  | > 100 |  | > 100 | 34600 nM and > 100000 nM |  | > 100 | 14 µM and > 100 µM | 92.7 µM and > 100 µM | > 100 |
| Cc1cc2c(C(C)C)c(O)c(O)c(/C=N/O)c2c(O)c1-c1c(C)cc2c(C(C)C)c(O)c(O)c(/C=N/O)c2c1O | 2040 | 7.45 |  |  | 2410 nM | 12 | 2890 | 13.5 | 2.03 | 27.4 | 2190 | 6.72 | 3.08 | 12.9 | 2440 nM | 3470 nM | 13.8 | 3.57 µM | 17.4 µM | 15.4 |
| CC(=O)NC(CCc1ccc(Cl)c(Cl)c1)c1cccc(O)c(=O)c1 (centres undefined) | 286 | 31.6 | 195 | 11.9 | 315 nM | 15.2 | 1930 | 15.7 | 2.61 | 32.5 | 407 | 11.8 | 1.58 | 21.8 | 1220 nM | 2800 nM | 17.1 | 1.87 µM | 17.1 µM | 19.7 |
| COC(=O)NC1=Nc2ccccc2C(=O)NN1 |  | > 100 |  | > 100 |  | > 100 |  | > 100 |  | > 100 |  | > 100 |  | > 100 |  |  | > 100 |  | > 100 µM | > 100 |
| c1ccc(C2=Nc3ccccc3N3CNN=C23)cc1 | > 100000 | > 100 | > 100000 | > 100 | > 100000 nM | > 100 | 15000 | 51.5 | 81.8 | > 100 | > 100000 | > 100 | > 100 | > 100 | 31600 nM | > 100000 nM | > 100 | 25.8 µM | 86.6 µM | > 100 |
| C/C(=N\O)C1CC(CC(=O)O)C1(C)C (centres undefined) |  | > 100 |  | > 100 |  | > 100 |  | > 100 |  | > 100 |  | > 100 |  | > 100 |  |  | > 100 |  | > 100 µM | > 100 |
| Cc1[nH]c(N)nc(=S)c1CCCNc1ccccc1 |  | > 100 |  | > 100 |  | > 100 |  | > 100 |  | > 100 |  | > 100 |  | > 100 |  |  | > 100 |  | > 100 µM | > 100 |
| CCc1nc(N)nc(N)c1-c1ccc(N2CCNCC2)c([N+](=O)[O-])c1 |  | > 100 |  | > 100 |  | > 100 |  | > 100 |  | > 74.2 |  | > 100 |  | > 100 |  |  | > 90.5 |  | > 95.8 µM | > 100 |
| CCN(CC)Cc1cc(Nc2ccnc3ccc(OC)cc23)ccc1O | 2820 | 9.5 | 1480 | 4.1 | 2620 nM | 15 | 2040 | 7.13 | 9.35 | 30.6 | 3280 | 10.4 | 3.95 | 28 | 3970 nM | 2940 nM | 5.5 | 4.88 µM | 18.8 µM | 15.1 |
| CCN1C[C@@H](C)n2c(c(O)c3c(=O)n(Cc4ccc(F)c(Cl)c4)nc(C(=O)NC)c32)C1=O | 2850 | 8.87 | 3030 | 16.6 | 3210 nM | > 100 | 1700 | 4.91 | 2.48 | 7.42 | 3150 | 10.7 | 3.86 | > 100 | 2590 nM | 2110 nM | 4.53 | 2.28 µM | 7.12 µM | 7.37 |
| CCN(CC)CCOc1ccc2c(-c3ccccc3)c(-c3ccc(OC)cc3)c(=O)oc2c1 | 6820 | 20.1 | 3070 | 10.3 | 2780 nM | 10.5 | 2470 | 10.7 | 3.19 | 15.5 | 2500 | 6.06 | 12 | 24.9 | 2560 nM |  |  | 3.69 µM | 16.7 µM | 11.8 |
| CCCCNC(=O)CC1=C(C)/C(=C/c2[nH]c(-c3ccc[nH]3)cc2OC)N=C1C | 2260 | 5.64 | 2560 | 9.3 |  |  | 2170 | 7.09 | 2.66 | 9.11 | 2710 | 11.7 | 3.19 | 34.1 | 1950 nM | 1720 nM | 3.87 | 1.85 µM | 7.36 µM | 4.43 |
| O=C(CCl)N1CCN(c2ccccc2)CC1 |  | 41.1 |  | 29.9 |  | 35.5 |  | 36.2 |  | 76.7 |  | 34.9 |  | 34.9 |  |  |  |  | 32.5 µM | 85.5 |
| C=C1CC[C@@](C)(c2cc(Br)c(C)cc2OC(C)=O)[C@H]1C | 13700 | 27.3 | 14700 | 28.8 | 8810 nM | 20.8 | 3490 | 16.2 | 19.3 | 42.5 | 11300 | 25 | 15.1 | 28.7 | 9550 nM | 13800 nM | 32.4 |  |  | 24.9 |
| C/C=C(/C)C(=O)OC1C=C(CO)C(=O)C(OC(=O)C2(C)OC2C)C1C(C)C (centres undefined) | 1480 | 2.81 | 1810 | 3.2 | 1130 nM | 2.48 | 1650 | 3.33 | 3.68 | 22.9 | 2930 | 8.27 | 1.93 | 3.74 | 1500 nM | 1850 nM | 3.59 |  |  | 5.17 |
| Oc1ccc(/C=N/NC(=S)Nc2ccccc2)nc1 | 552 | > 100 | 667 | > 100 | 1420 nM | > 100 | 439 | 6.92 | 9.84 | > 100 | 2770 | > 100 | 7.09 | > 100 | 3440 nM | 1540 nM | 44.1 |  |  | > 100 |
| CCN(CC)CCN1C(=O)c2c(c3c4cccc(Cl)c4n(C4OC(CO)C(OC)C(O)C4O)c3c3[nH]c4c(Cl)cccc4c23)C1=O (centres undefined) | < 0.1 |  |  |  | < 0.1 nM |  | 0.362 |  |  | 1.99 | < 0.1 |  |  |  | 0.139 nM and < 26.8 nM | 1.03 nM and < 10 nM |  |  |  | 0.00306 |
